Assay results published in patent US8975286B2, “Ether benzotriazole derivatives” (Merck Sharp & Dohme Corp., priority 2009, dated 2015).

target: T1, recombinant human mGluR2 (Homo sapiens, UniProt Q14416); assay: FLIPR Ca2+ mobilization assay, potentiation of glutamate (EC20) response; format: cell-based; details: CHO dhfr- cells expressing human mGluR2 and Gα16; potentiation with EC20 glutamate (900 nM); read-out: Representative FLIPR EC50 Values
T1 construct: expressed in transfected cells
Procedure: Potencies are determined as follows. The compounds of the present invention may be tested in a fluorescence laser imaging plate reader (FLIPR) based assay. This assay is a common functional assay to monitor Ca^2+ mobilization in whole cells expressing recombinant receptor coupled with a promiscuous G-protein. CHO dhfr− cells stably expressing recombinant human mGluR2 and Gα16 loaded with Fluo-4 AM (Invitrogen, Carlsbad Calif.) are treated with varying concentrations of compounds and the Ca^2+ response is monitored on a FLIPR384 (Molecular Devices, Sunnydale Calif.) for agonist activity. The potentiation response is monitored after a subsequent addition of an EC20 concentration of glutamate (900 nM). The maximum calcium response at each concentration of compound for agonism or potentiation are plotted as dose responses curves fitted with a four parameters logistic equation giving EC50 and Hill coefficient using the iterative non linear curve fitting software program.

T1 sequence (Q14416 19-872): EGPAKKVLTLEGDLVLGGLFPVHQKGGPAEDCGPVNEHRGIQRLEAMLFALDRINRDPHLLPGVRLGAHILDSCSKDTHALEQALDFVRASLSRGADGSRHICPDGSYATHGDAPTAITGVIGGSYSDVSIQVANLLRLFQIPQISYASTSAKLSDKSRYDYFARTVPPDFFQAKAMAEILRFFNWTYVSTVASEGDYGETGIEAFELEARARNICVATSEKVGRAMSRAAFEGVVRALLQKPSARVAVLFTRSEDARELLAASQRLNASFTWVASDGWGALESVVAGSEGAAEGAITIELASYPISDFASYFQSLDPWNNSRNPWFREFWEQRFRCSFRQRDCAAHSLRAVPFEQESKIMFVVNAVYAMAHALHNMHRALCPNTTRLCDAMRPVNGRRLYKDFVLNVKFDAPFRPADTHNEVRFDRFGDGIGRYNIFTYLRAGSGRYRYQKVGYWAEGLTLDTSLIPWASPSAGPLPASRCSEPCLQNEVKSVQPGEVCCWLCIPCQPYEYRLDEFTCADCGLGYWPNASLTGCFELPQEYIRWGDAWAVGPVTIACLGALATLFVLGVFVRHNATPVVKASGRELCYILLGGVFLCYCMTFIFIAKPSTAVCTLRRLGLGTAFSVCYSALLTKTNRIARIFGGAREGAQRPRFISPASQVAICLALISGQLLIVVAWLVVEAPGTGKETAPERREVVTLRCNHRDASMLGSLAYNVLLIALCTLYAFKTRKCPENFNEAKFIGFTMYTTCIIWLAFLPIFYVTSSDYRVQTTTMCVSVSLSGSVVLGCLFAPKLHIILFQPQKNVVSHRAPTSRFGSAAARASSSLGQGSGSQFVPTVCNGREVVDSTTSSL

SMILES | EC50 [µM]
OC(c1cccnc1Oc1ccc2c(nnn2CC2CC2)c1Br)C1CC1 (centres unmarked) [Example 93, (2-{[4-bromo-1-(cyclopropylmethyl)-1H-benzotriazol-5-yl]oxy}pyridin-3-yl)(cyclopropyl)methanol] | 0.011
Cc1cccnc1Oc1ccc2c(nnn2CC(C)(C)C)c1Br [Example 122, 4-bromo-1-(2,2-dimethylpropyl)-5-[(3-methylpyridin-2-yl)oxy]-1H-benzotriazole] | 0.08
CS(=O)(=O)N1CCCN(Cc2cc(Cl)cnc2Oc2ccc3c(nnn3CC3CC3)c2Br)CC1 [Example 280, 4-bromo-5-[(5-chloro-3-{[4-(methylsulfonyl)-1,4-diazepan-1-yl]methyl}pyridin-2-yl)oxy]-1-(cyclopropylmethyl)-1H-benzotriazole] | 0.008
COCC(OC)c1cccnc1Oc1ccc2c(nnn2CC2CC2)c1Br (centres unmarked) [Example 55, 4-bromo-1-(cyclopropylmethyl)-5-{[3-(1,2-dimethoxyethyl)pyridin-2-yl]oxy}-1H-benzotriazole] | 0.095
OC1(c2cccnc2Oc2ccc3c(nnn3CC3CC3)c2Cl)CCC(C(F)(F)F)CC1 (centres unmarked) [Example 411, 1-(2-{[4-chloro-1-(cyclopropylmethyl)-1H-benzotriazol-5-yl]oxy}pyridin-3-yl)-4-(trifluoromethyl) cyclohexanol] | 0.257
OCC1C2CN(Cc3cc(Cl)cnc3Oc3ccc4c(nnn4CC4CC4)c3Br)CC12 (centres unmarked) [Example 357, {3-[(2-{[4-bromo-1-(cyclopropylmethyl)-1H-benzotriazol-5-yl]oxy}-5-chloropyridin-3-yl)methyl]-3-azabicyclo[3.1.0]hex-6-yl}methanol] | 0.013
CC(O)c1cccnc1Oc1ccc2c(nnn2CC2CC2)c1C(F)(F)F (racemic) [Example 418, (±)-1-(2-{[1-(cyclopropylmethyl)-4-(trifluoromethyl)-1H-benzotriazol-5-yl]oxy}pyridin-3-yl)ethanol] | 0.049
CC(C)(C)C(O)c1cccnc1Oc1ccc2c(nnn2CC2CC2)c1Br (centres unmarked) [Example 72, 1-(2-{[4-bromo-1-(cyclopropylmethyl)-1H-benzotriazol-5-yl]oxy}pyridin-3-yl)-2,2-dimethylpropan-1-ol] | 0.005
OCC(O)c1cccnc1Oc1ccc2c(nnn2CC2CC2)c1Br (centres unmarked) [Example 52, 1-(2-{[4-bromo-1-(cyclopropylmethyl)-1H-benzotriazol-5-yl]oxy}pyridin-3-yl)ethane-1,2-diol] | 0.814
Cn1cc(-c2cnc(Oc3ccc4c(nnn4CC(C)(C)C)c3Br)c(C#N)c2)cn1 [Example 169, 2-{[4-bromo-1-(2,2-dimethylpropyl)-1H-benzotriazol-5-yl]oxy}-5-(1-methyl-1H-pyrazol-4-yl)pyridine-3-carbonitrile] | 0.425
CC(O)c1ncccc1Oc1ccc2c(nnn2CC(C)(C)C)c1Br (centres unmarked) [Example 151, 1-(3-{[4-bromo-1-(2,2-dimethylpropyl)-1H-benzotriazol-5-yl]oxy}pyridin-2-yl)ethanol] | 0.122
FC(F)(F)CNCc1cccnc1Oc1ccc2c(nnn2CC2CC2)c1Br [Example 213, N-[(2-{[4-bromo-1-(cyclopropylmethyl)-1H-benzotriazol-5-yl]oxy}pyridin-3-yl)methyl]-2,2,2-trifluoroethanamine] | 0.04
Clc1cnc(Oc2ccc3c(nnn3CC3CC3)c2Br)c(CN2CCN(c3nccs3)CC2)c1 [Example 320, 4-bromo-5-[(5-chloro-3-{[4-(1,3-thiazol-2-yl)piperazin-1-yl]methyl}pyridin-2-yl)oxy]-1-(cyclopropylmethyl)-1H-benzotriazole] | 0.005
OC(c1cccnc1Oc1ccc2c(nnn2CC2CC2)c1C(F)(F)F)C1CC1 (centres unmarked) [Example 421, cyclopropyl(2-{[1-(cyclopropylmethyl)-4-(trifluoromethyl)-1H-benzotriazol-5-yl]oxy}pyridin-3-yl)methanol] | 0.02
CCC(O)c1cccnc1Oc1ccc2c(nnn2CC(C)(C)C)c1Br (centres unmarked) [Example 184, 1-(2-{[4-bromo-1-(2,2-dimethylpropyl)-1H-benzotriazol-5-yl]oxy}pyridin-3-yl)propan-1-ol] | 0.021
CC(C)(C)OC(=O)N1C[C@@H]2C[C@H]1CN2Cc1cc(Cl)cnc1Oc1ccc2c(nnn2CC2CC2)c1Br [Example 297, tert-butyl(1S,4S)-5-[(2-{[4-bromo-1-(cyclopropylmethyl)-1H-benzotriazol-5-yl]oxy}-5-chloropyridin-3-yl)methyl]-2,5-diazabicyclo[2.2.1] heptane-2-carboxylate] | 0.019
FC1(F)CCN(Cc2cccnc2Oc2ccc3c(nnn3CC3CC3)c2Br)CC1 [Example 194, 4-Bromo-1-(cyclopropylmethyl)-5-({3-[(4,4-difluoropiperidin-1-yl)methyl]pyridin-2-yl}oxy)-1H-benzotriazole] | 0.032
CS(=O)(=O)N1CCN(Cc2cc(Cl)cnc2Oc2ccc3c(nnn3CC3CC3)c2Br)CC1 [Example 198, 4-bromo-5-[(5-chloro-3-{[4-(methylsulfonyl)piperazin-1-yl]methyl}pyridin-2-yl)oxy]-1-(cyclopropylmethyl)-1H-benzotriazole] | 0.003
CC(C)(C)C(O)c1cccnc1Oc1ccc2c(nnn2CC2CC2)c1Br (centres unmarked) [Example 91, 1-(2-{[4-bromo-1-(cyclopropylmethyl)-1H-benzotriazol-5-yl]oxy}pyridin-3-yl)-2,2-dimethylpropan-1-ol] | 0.006

More lines, in order of falling EC50, values ahead:

EC50 [µM] | SMILES
0.705 | CC1(O)CCN(Cc2cccnc2Oc2ccc3c(nnn3CC3CC3)c2Br)CC1 [Example 227, 1-[(2-{[4-bromo-1-(cyclopropylmethyl)-1H-benzotriazol-5-yl]oxy}pyridin-3-yl)methyl]-4-methylpiperidin-4-ol]
0.556 | CC(C)(O)c1cccnc1Oc1ccc2c(nnn2CC2CC2)c1Cl [Example 396, 2-(2-{[4-chloro-1-(cyclopropylmethyl)-1H-benzotriazol-5-yl]oxy}pyridin-3-yl)propan-2-ol]
0.556 | OC(CF)(CF)c1cccnc1Oc1ccc2c(nnn2CC2CC2)c1Cl [Example 398, 2-(2-{[4-chloro-1-(cyclopropylmethyl)-1H-benzotriazol-5-yl]oxy}pyridin-3-yl)-1,3-difluoropropan-2-ol]
0.141 | CC(C)(C)Cn1nnc2c(Br)c(Oc3ccncc3)ccc21 [compound 423, 4-bromo-1-(2,2-dimethylpropyl)-5-pyridin-4-yloxy-1H-benzotriazole]
0.129 | FCC1CCN(Cc2cccnc2Oc2ccc3c(nnn3CC3CC3)c2Br)C1 (centres unmarked) [Example 215, 4-bromo-1-(cyclopropylmethyl)-5-[(3-{[3-(fluoromethyl)pyrrolidin-1-yl]methyl}pyridin-2-yl)oxy]-1H-benzotriazole]
0.064 | O=C(NCc1cc(F)cnc1Oc1ccc2c(nnn2CC2CC2)c1Br)c1ccon1 [Example 284, N-[(2-{[4-bromo-1-(cyclopropylmethyl)-1H-benzotriazol-5-yl]oxy}-5-fluoropyridin-3-yl)methyl]isoxazole-3-carboxamide]
0.064 | CC(C)(C)Cn1nnc2c(Br)c(Oc3ncccc3C(F)(F)F)ccc21 [Example 111, 4-bromo-1-(2,2-dimethylpropyl)-5-{[3-(trifluoromethyl)pyridin-2-yl]oxy}-1H-benzotriazole]
0.052 | CC(=O)N1CCCN(Cc2cc(F)cnc2Oc2ccc3c(nnn3CC3CC3)c2Br)CC1 [Example 253, 5-({3-[(4-acetyl-1,4-diazepan-1-yl)methyl]-5-fluoropyridin-2-yl}oxy)-4-bromo-1-(cyclopropylmethyl)-1H-benzotriazole]
0.039 | FC1(F)CCCN(Cc2cccnc2Oc2ccc3c(nnn3CC3CC3)c2Br)C1 [Example 204, 4-bromo-1-(cyclopropylmethyl)-5-({3-[(3,3-difluoropiperidin-1-yl)methyl]pyridin-2-yl}oxy)-1H-benzotriazole]
0.023 | CC(C)(C)Cn1nnc2c(Br)c(Oc3cccc(Br)n3)ccc21 [Example 148, 4-bromo-5-[(6-bromopyridin-2-yl)oxy]-1-(2,2-dimethylpropyl)-1H-benzotriazole]
0.008 | CS(=O)(=O)NC1CCN(Cc2cc(Cl)cnc2Oc2ccc3c(nnn3CC3CC3)c2Br)CC1 [Example 365, N-{1-[(2-{[4-bromo-1-(cyclopropylmethyl)-1H-benzotriazol-5-yl]oxy}-5-chloropyridin-3-yl)methyl]piperidin-4-yl}methanesulfonamide]
0.008 | Clc1cnc(Oc2ccc3c(nnn3CC3CC3)c2Br)c(CN2CC(n3cccn3)C2)c1 [Example 384, 4-bromo-5-[(5-chloro-3-{[3-(1H-pyrazol-1-yl)azetidin-1-yl]methyl}pyridin-2-yl)oxy]-1-(cyclopropylmethyl)-1H-benzotriazole]
0.002 | CC1CN(Cc2cc(F)cnc2Oc2ccc3c(nnn3CC3CC3)c2Br)CCN1S(C)(=O)=O (stereo in doubt) [Example 290, 4-bromo-1-(cyclopropylmethyl)-5-[(5-fluoro-3-{[(3R)-3-methyl-4-(methylsulfonyl)piperazin-1-yl]methyl}pyridin-2-yl)oxy]-1H-benzotriazole]
